Reference: patent US12600696B2 (XENIOPRO GMBH, priority 2017, dated 2026)

Test system: HL-60 cells (human acute myeloid leukemia cells)
Experiment: alamarBlue proliferation assay with HL-60 cells
Format: cell-based
Conditions: 120 h, 5 days, relative to DMSO baseline level of 1.0, read-out: AVEw, weighted arithmetic mean of normalized fluorescence intensity values (Activity Range), HL-60 proliferation
Method in brief: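 HL-60 cells (1000/well, RPMI 1640 + 10% FBS) exposed to compound in 0.1% DMSO for 5 days, then alamarBlue fluorescence read (ex 560/em 590 nm). Signals normalized to six DMSO wells per plate (baseline 1.0); outliers removed by Peirce/Chauvenet; weighted mean with combined SD; inhibitor criterion judged at 20 μM reference concentration.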

Row | SMILES | activity at 20 µM [%]
1 | NC(=O)c1ccc(Oc2ccc(C3CC4CCC3C4)cc2)cc1 (racemic) [Compound 159, (±)-4-(4-(Bicyclo[2.2.1]heptan-2-yl)phenoxy)benzamide] | 40 to 60
2 | CCCc1ccc(Oc2ccc(C(=O)NO)cc2)cc1 [Compound 166, N-hydroxy-4-(4-propylphenoxy)benzamide] | 0 to 20
3 | CCC(C)(C)c1ccc(Oc2ccc(C(=O)NO)cc2)cc1 [Compound 171, N-hydroxy-4-(4-(tert-pentyl)phenoxy)benzamide] | 0 to 20
4 | O=C(NO)c1ccc(Oc2ccc(C3CCCCC3)cc2)cc1 [Compound 182, 4-(4-cyclohexylphenoxy)-N-hydroxybenzamide] | 0 to 20
5 | O=C(NO)c1ccc(Oc2ccc(C34CC5CC(CC(C5)C3)C4)cc2)cc1 [Compound 186, 4-(4-(Adamantan-1-yl)phenoxy)-N-hydroxybenzamide] | 0 to 20
6 | CC(C)c1ccc(Oc2ccc(C(=O)NO)cn2)cc1 [Compound 272, N-hydroxy-6-(4-isopropylphenoxy)nicotinamide] | 0 to 20
7 | CCC(C)(C)c1ccc(Oc2ccc(C(=O)NO)cn2)cc1 [Compound 273, N-hydroxy-6-(4-(tert-pentyl)phenoxy)nicotinamide] | 0 to 20
8 | O=C(NO)c1ccc(Oc2ccc(C3CCCCC3)cc2)nc1 [Compound 284, 6-(4-Cyclohexylphenoxy)-N-hydroxynicotinamide] | 0 to 20
9 | O=C(NO)c1ccc(Oc2ccc(C3CC4CCC3CC4)cc2)nc1 (stereo not drawn) [Compound 287, 6-(4-((1s,4s)-bicyclo[2.2.2]octan-2-yl)phenoxy)-N-hydroxynicotinamide] | 0 to 20
10 | O=C(NO)c1ccc(Oc2ccc(C34CC5CC(CC(C5)C3)C4)cc2)nc1 [Compound 288, 6-(4-((3r,5r,7r)-adamantan-1-yl)phenoxy)-N-hydroxynicotinamide] | 0 to 20
11 | CNC(=O)c1ccc(Oc2ccc(C(F)(F)F)cc2)nc1 [Compound 300, N-methyl-6-(4-(trifluoromethyl)phenoxy)nicotinamide] | 80 to 90
12 | CN(C)C(=O)c1ccc(Oc2ccc(C3CCCCC3)cc2)nc1 [Compound 334, 6-(4-cyclohexylphenoxy)-N,N-dimethylnicotinamide] | 60 to 70
13 | O=C(NO)c1ccc(Oc2ccc(C34CC5CC(CC(C5)C3)C4)cc2)c(F)c1 [Compound 544, 4-(4-(Adamantan-1-yl)phenoxy)-3-fluoro-N-hydroxybenzamide] | 0 to 20
14 | O=C(NO)c1cnc(Oc2ccc(C3CCCCC3)cc2)c(F)c1 [Compound 644, 6-(4-Cyclohexylphenoxy)-5-fluoro-N-hydroxynicotinamide] | 0 to 20
15 | Oc1ccc(C=Cc2cc(O)cc(O)c2)cc1 [RES, resveratrol, reference compound] | 40
